Active and inactive are the calls of the source. No rule for the calls is given here.
Target: Luciferin 4-monooxygenase (Photinus pyralis) (UniProt P08659)
Assay: inhibition of purified Photinus pyralis luciferase – biochemical, luminescence, dose response (AID 1891)
Settings: purified firefly luciferase

Row | Compound | IC50
1 | Nc1ncnc2c1ncn2C1OC(CO)C(O)C1O (centres undefined) | > 11.2 µM (inactive)
2 | CCNC(=O)C1OC(n2cnc3c(N)ncnc32)C(O)C1O (centres undefined) | > 11.2 µM (inactive)
3 | Nc1ncnc2c1ncn2[C@@H]1O[C@H](CO)[C@@H](O)[C@H]1O | > 11.2 µM (inactive)
4 | CCNC(=O)[C@H]1O[C@@H](n2cnc3c(N)ncnc32)[C@H](O)[C@@H]1O | > 11.2 µM (inactive)
